Experimental data published in patent US10253086B2, “CD20 therapies, CD22 therapies, and combination therapies with a CD19 chimeric antigen receptor (CAR)-expressing cell” (Novartis AG, priority 2015, dated 2019).

Experiments:
r/r B-ALL = details: cited from earlier work
[1] = system: CAR-expressing, transduced T cells; assay: CART co-culture with NALM6 cells in the presence of RAD001; type: cell-based; details: low doses of RAD001 (nM); 4 days of co-culture with NALM6
Procedure: CARTs were co-cultured with NALM6 (Nalm-6) cells in the presence of different concentrations of RAD001 (nM). The number of CAR-positive CD3-positive T cells (black) and total T cells (white) was assessed after 4 days of co-culture.

CAR T cells [2] = assay: In vivo proliferation of humanized CD19 CART cells with and without RAD001 dosing; details: RAD001 0.003 mg/kg daily with huCTL019; versus normal level of huCAR19 proliferation
Procedure: FIGS. 62A and 62B show in vivo proliferation of humanized CD19 CART cells with and without RAD001 dosing. […] Circles denote PBS; squares denote huCTL019; triangles denote huCTL019 with 3 mg/kg RAD001; inverted triangles denote huCTL019 with 0.3 mg/kg RAD001; diamonds denote huCTL019 with 0.03 mg/kg RAD001; and circles denote huCTL019 with 0.003 mg/kg RAD001.

NALM6 (Nalm-6) = assay: 4 day co-culture proliferation of huCART19 with RAD001; type: cell-based, human
Procedure: To evaluate the functionality of CARTs, the T cells are thawed and counted, and viability is assessed by Cellometer. The number of CAR-positive cells in each culture is normalized using non-transduced T cells (UTD). The impact of RAD001 on CARTs was tested in titrations with RAD001, starting at 50 nM. The target cell line used in all co-culture experiments is NALM6 (Nalm-6), a human pre-B cell acute lymphoblastic leukemia (ALL) cell line expressing CD19 and transduced to express luciferase.
For measuring the proliferation of CARTs, T cells are cultured with target cells at a ratio of 1:1. The assay is run for 4 days, when cells are stained for CD3, CD4, CD8 and CAR expression. The number of T cells is assessed by flow cytometry using counting beads as reference.
The proliferative capacity of CART cells was tested in a 4 day co-culture assay.

NALM6-luc tumors = assay: RAD001 alone on growth of NALM6-luc tumors; type: in vivo, NSG mice; details: daily oral dosing of RAD001 alone
Procedure: NALM6-luc cells: The NALM6 human acute lymphoblastic leukemia (ALL) cell line was developed from the peripheral blood of a patient with relapsed ALL. The cells were then tagged with firefly luciferase. These suspension cells grow in RPMI supplemented with 10% heat inactivated fetal bovine serum.
Mice: 6 week old NSG (NOD.Cg-PrkdcscidIl2rgtm1Wjl/SzJ) mice were received from the Jackson Laboratory (stock number 005557).
Tumor implantation: NALM6-luc cells were grown and expanded in vitro in RPMI supplemented with 10% heat inactivated fetal bovine serum. The cells were then transferred to a 15 ml conical tube and washed twice with cold sterile PBS. NALM6-luc cells were then counted and resuspended at a concentration of 10×10^6 cells per milliliter of PBS. The cells were placed on ice and immediately (within one hour) implanted in the mice. NALM6-luc cells were injected intravenously via the tail vein in a 100 μl volume, for a total of 1×10^6 cells per mouse.
(§1) RAD001 dosing: A concentrated micro-emulsion of 50 mg equal to 1 mg RAD001 was formulated and then resuspended in D5W (dextrose 5% in water) at the time of dosing. Mice were orally dosed daily (via oral gavage) with 200 μl of the desired doses of RAD001.
(§2) The expansion and pharmacokinetics of RAD001 was tested in NSG mice with NALM6-luc tumors.

[3] = RAD001 PK analysis in tumor bearing mice; type: in vivo, NSG mice
Procedure: as §1
PK analysis: Mice were dosed daily with RAD001 starting 7 days post tumor implantation. Dosing groups were as follows: 0.3 mg/kg, 1 mg/kg, 3 mg/kg, and 10 mg/kg. Mice were bled on days 0 and 14 following the first and last dose of RAD001, at the following time points for PK analysis: 15 minutes, 30 minutes, 1 hour, 2 hours, 4 hours, 8 hours, 12 hours, and 24 hours.
as §2

CAR T cells [4] = assay: huCAR19 CAR T cell expansion in vivo with RAD001; design: species or system NSG mice; details: lowest doses of RAD001, daily oral
Procedure: CAR T cell dosing: Mice were administered 5×10^6 CAR T cells 7 days after tumor implantation. Cells were partially thawed in a 37 degree Celsius water bath and then completely thawed by the addition of 1 ml of cold sterile PBS to the tube containing the cells. The thawed cells were transferred to a 15 ml falcon tube and adjusted to a final volume of 10 mls with PBS. The cells were washed twice at 1000 rpm for 10 minutes each time and then counted on a hemocytometer. T cells were then resuspended at a concentration of 50×10^6 CAR T cells per ml of cold PBS and kept on ice until the mice were dosed. The mice were injected intravenously via the tail vein with 100 μl of the CAR T cells for a dose of 5×10^6 CAR T cells per mouse. Eight mice per group were treated either with 100 μl of PBS alone (PBS), or humanized CD19 CAR T cells.
as §1
Based on these doses, huCAR19 CAR T cells were dosed with and without RAD001 to determine the proliferative ability of these cells. The highest dose used was 3 mg/kg based on the levels of RAD001 in the blood 24 hours after dosing. […] Mice were monitored via FACS for T cell expansion. […]

Row | concentration of RAD001 in blood ([3]; 24 hours after the final dose) | concentration at 24 h ([3]; NSG, mouse, whole blood, oral, 24 hours after dosing, 0.3 mg/kg, day 0 and day 14, read-out: RAD001 concentrations in the blood) [nM] | stability in the blood of tumor bearing mice ([3]; mouse, in vivo) | Compound | share of relapses that are CD19-negative (r/r B-ALL) | proliferation of CAR-expressing, transduced T cells [1] | CAR T cell proliferation in vivo (CAR T cells [2]) | proliferation of huCART19 cells (NALM6 (Nalm-6); 0.0032 and 0.016 nM RAD001) | RAD001 concentration at which huCART19 cells expanded (NALM6 (Nalm-6); lesser extent at higher concentrations) | growth of NALM6-luc tumors (NALM6-luc tumors) | proliferation of the CAR T cells in vivo (CAR T cells [4])
1 | – | – | – | blinatumomab: bi-specific anti-CD19/CD3 antibody combining an anti-CD19 scFv with an anti-CD3 scFv | about 30% | – | – | – | – | – | –
2 | above 10 nM | > 10 | fairly stable in the blood | CO[C@H]1C[C@@H]2CC[C@@H](C)[C@@](O)(O2)C(=O)C(=O)N2CCCC[C@H]2C(=O)O[C@H]([C@H](C)C[C@@H]2CC[C@@H](OCCO)[C@H](OC)C2)CC(=O)[C@H](C)/C=C(\C)[C@@H](O)[C@@H](OC)C(=O)[C@H](C)C[C@H](C)/C=C/C=C/C=C/1C [RAD001, everolimus] | – | enhanced | enhancement in CAR T cell proliferation | higher than observed without the addition of RAD001 | less than 0.016 nM | did not have an impact on the growth of NALM6-luc tumors | enhanced proliferation of the CAR T cells
